# Patent US20230310504A1, “PLATELET MEMBRANE COATED NANOPARTICLES AND USES THEREOF” (CELLO THERAPEUTICS, INC., priority 2020, published 2023)
# How the values were obtained:
# [1] = tested on: MC38 murine colon adenocarcinoma; test: Therapeutic efficacy in a murine MC38 tumor model (15 µg and reduced 6 µg R848 dosage); type: in vivo, C57BL/6 mice; conditions: for long-term survival rate: intratumoral, every other day x3
# Procedure: The antitumor efficacy of PNP-R848 was evaluated using an MC38 murine colon adenocarcinoma model in immunocompetent C57BL/6 mice (FIG. 4a). Each animal received a subcutaneous injection of 1 × 10^6 MC38 cells in the right flank, and the average tumor size was allowed to reach ~30-40 mm^3. At this point, the mice started receiving one of the following treatments: 8% sucrose as a negative control, free R848, PEG-NP loaded with R848 (PEG-NP-R848), or PNP-R848, each at a drug dosage of 15 µg per injection. Treatments were administered intratumorally every other day for a total of 3 times, after which the mice were monitored regularly to assess therapeutic efficacy (FIGS. 4b-e). […] Tumor growth was considerably delayed when treating with either free R848 or PEG-NP-R848, but there was significant disease progression in a majority of the mice by approximately 30 days after the start of treatment. […] Treatment efficacy was also evaluated when reducing the drug dosage by 2.5-fold to 6 µg of R848 per injection (FIG. 6).
# In order to determine if the surviving animals had developed long-term immunity against MC38 cancer cells, the mice were re-challenged with a 3-fold higher inoculum subcutaneously into the right flank 56 days after initiation of the first treatment (FIGS. 4c,d). For the survivors that had been treated with either dose of PNP-R848, the second tumor challenge was rejected at a 100% rate. […] The remainder of the surviving animals in the other groups all rejected the re-challenge, with no tumor progression observed at least 100 days after the start of the initial treatment.
# Therapeutic efficacy in a murine MC38 tumor model. Mice were implanted with 1 × 10^6 MC38 cells subcutaneously into the right flank, which were allowed to grow to an average size of ~30-40 mm^3. The mice were then intratumorally treated every other day for a total of 3 times. […] Tumor growth and mouse weight were monitored every other day. […]
# Therapeutic efficacy in a murine MC38 tumor model at a reduced R848 dosage. […] Tumor growth and mouse weight were monitored every other day. […]
# [2] = tested on: MC38 murine colon adenocarcinoma; test: Therapeutic efficacy in combination with doxorubicin in MC38 model; type: in vivo, C57BL/6 mice
# Procedure: Therapeutic efficacy of PNP-R848 in combination with chemotherapy was also assessed (FIG. 8). […] Despite some promising initial results, all mice treated with doxorubicin, both with or without PNP-R848, succumbed after re-challenge with a 3-fold higher dose of cancer cells.
# Therapeutic efficacy in combination with doxorubicin. Mice were implanted with 1 × 10^6 MC38 cells subcutaneously into the right flank, which were allowed to grow to an average size of ~30-40 mm^3. The mice received intratumoral treatments every other day for a total of 3 times. The treatment groups included: 8% sucrose (n = 6), free doxorubicin (n = 6), and doxorubicin + PNP-R848 (n = 6). Mice received 63 µg of doxorubicin and 15 µg of R848 per dose. For the combination treatment, doxorubicin and PNP-R848 were mixed pre-administration and the animal received one intratumoral injection containing both. Tumor growth and mouse weight were monitored every other day. Progression-free survival was defined as tumor volume < 200 mm^3. All the mice that rejected the initial MC38 inoculum were re-challenged subcutaneously using 3 × 10^6 MC38 cells on day 56 after the start of the first treatment. Five naive C57BL/6 mice that received the same MC38 tumor cell challenge were used as controls to verify tumorigenicity.
Structure (SMILES),long-term survival rate ([1]; 6 µg R848 per injection),long-term survival rate ([1]; 15 µg R848 per injection),"overall survival after the tumor re-challenge ([1]; 6-µg dosage, 3-fold higher inoculum, day 56)",survival ([2]; 63 µg doxorubicin intratumoral x3),"outcome after re-challenge ([2]; 3-fold higher dose of cancer cells, day 56)"
"CCOCc1nc2c(N)nc3ccccc3c2n1CC(C)(C)O [free R848, Resiquimod]",62.5%,28.6%,37.5%,–,–
COc1cccc2c1C(=O)c1c(O)c3c(c(O)c1C2=O)C[C@@](O)(C(=O)CO)C[C@@H]3O[C@H]1C[C@H](N)[C@H](O)[C@H](C)O1 [doxorubicin],–,–,–,"prolonged survival, the improvement was modest",succumbed
